Laboratory results taken from publication PMC9597602, “Metal Complexes as Antifungals? From a Crowd-Sourced Compound Library to the First In Vivo Experiments” (JACS Au, 2022).
Read-outs that look alike come from different tables or passages of the source.

Columns and labels:
[1] = test system: Acinetobacter baumannii ATCC 19606 type strain; test: CO-ADD antibacterial MIC assay; type: cell-based; details: initial CO-ADD dose-response screening; ≥80% growth inhibition
In short: (§1)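 Strains grown overnight in cation-adjusted Mueller Hinton broth at 37 °C, diluted 40-fold and regrown 1.5–3 h to mid-log, then seeded at 5 × 10^5 CFU/mL with compound. After 18 h static incubation at 37 °C, OD600 was read; MIC is the lowest concentration giving ≥80% growth inhibition.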

[2] = test system: Escherichia coli ATCC 25922 FDA control strain; test: CO-ADD antibacterial MIC assay; type: cell-based; details: initial CO-ADD dose-response screening; ≥80% growth inhibition
In short: as §1

[3] = test system: Pseudomonas aeruginosa ATCC 27853 QC control strain; test: CO-ADD antibacterial MIC assay; type: cell-based; details: initial CO-ADD dose-response screening; ≥80% growth inhibition
In short: as §1

[4] = test system: methicillin-resistant Staphylococcus aureus ATCC 43300; test: CO-ADD antibacterial MIC assay; type: cell-based; details: initial CO-ADD dose-response screening; ≥80% growth inhibition
In short: as §1

[5] = test system: Candida albicans ATCC 90028 NCCLS11; test: Antifungal MIC assay; type: cell-based
In short: (§2)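 Colonies from 3-day YPD plates (30 °C) were suspended, diluted into YNB and added to compound plates at a final density of 2.5 × 10^3 CFU/mL. After 36 h at 35 °C without agitation, growth inhibition of ≥80% defined the MIC. Two technical replicates, 2–4 independent runs.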

[6] = test system: Cryptococcus neoformans H99 ATCC 208821 type strain; test: Antifungal MIC assay; type: cell-based
In short: as §2

[7] = test system: HEK-293 human embryonic kidney cells ATCC CRL-1573
Procedure: The cells were incubated together with the compounds for 20 h at 37 °C in 5% CO2. […] Tamoxifen (Sigma T5648) was used as internal control on each plate.

human red blood cells = type: cell-based
In short: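 Washed human erythrocytes at 0.5 × 10^8 cells/mL incubated with compound, then centrifuged. Haemolysis read as supernatant OD405, normalised to untreated cells (0%) and 1% Triton X-100 (100%), with melittin as internal plate control.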

[8] = test system: Candida auris CBS10913 JCM 15448; test: Antifungal MIC assay, extended panel; type: cell-based; details: extended panel
In short: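 Yeast strains were grown on YPD agar at 30 °C for 3 days. Five colonies were suspended to 1 × 10^6 to 5 × 10^6 CFU/mL (by OD530), diluted in YNB medium, and dispensed into compound-containing 384-well NBS plates to 2.5 × 10^3 CFU/mL in 50 μL. Covered plates were held at 35 °C for 36 h without shaking, and MIC was determined by broth dilution.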

[9] = test system: Candida auris CBS12373 KCTC 17810; test: Antifungal MIC assay, extended panel; type: cell-based; details: extended panel
In short: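 Yeast was grown for 3 days at 30 °C on YPD agar. Five colonies were suspended to 1 × 10^6 to 5 × 10^6 CFU/mL, checked by OD530, diluted in YNB medium, and dispensed onto compound-loaded 384-well NBS plates at 2.5 × 10^3 CFU/mL in 50 μL. Plates were covered and incubated without shaking at 35 °C for 36 h to determine MIC.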

[10] = test system: Candida glabrata ATCC 90030 NCCLS 84; test: Antifungal MIC assay, extended panel; type: cell-based; details: extended panel, second batch; ≥80 or ≥50% inhibition
In short: as §2

[11] = test system: Candida tropicalis ATCC 750; test: Antifungal MIC assay, extended panel; type: cell-based; details: extended panel, second batch; ≥80 or ≥50% inhibition
In short: as §2

[12] = test system: Cryptococcus deuterogattii ATCC 32609 VGII; test: Antifungal MIC assay, extended panel; type: cell-based; details: extended panel, second batch; ≥80 or ≥50% inhibition
[13] = test system: Cryptococcus deuterogattii CBS7750 VGII; Serotype B; test: Antifungal MIC assay, extended panel; type: cell-based; details: extended panel, second batch; ≥80 or ≥50% inhibition
In short: as §2

[14] = test system: Candida glabrata ATCC 90030 NCCLS 84; test: Antifungal MIC assay, extended panel; type: cell-based; details: extended panel; 50% inhibition, MIC score 2
[15] = test system: Candida tropicalis ATCC 750; test: Antifungal MIC assay, extended panel; type: cell-based; details: extended panel; 50% inhibition, MIC score 2
[16] = test system: Cryptococcus deuterogattii CBS7750 VGII; Serotype B; test: Antifungal MIC assay, extended panel; type: cell-based; details: extended panel; 50% inhibition, MIC score 2
[17] = test system: Cryptococcus deuterogattii ATCC 32609 VGII; test: Antifungal MIC assay, extended panel; type: cell-based; details: extended panel; 50% inhibition, MIC score 2
[18] = test system: human ovarian carcinoma cell line A2780; details: cited from earlier work
[19] = extended panel, second batch, ≥80 or ≥50% inhibition
[20] = extended panel, 50% inhibition, MIC score 2
[21] = initial CO-ADD dose-response screening, ≥80% growth inhibition

- MIC Ab [1]: >32 µg/mL
- MIC Ec [2]: >32 µg/mL
- MIC Pa [3]: >32 µg/mL
- MIC MRSA (Sa) [4]: >32 µg/mL
- MIC Candida albicans ATCC 90028 [5, 19]: 0.39 to 1.56 µM
- MIC50 Candida albicans ATCC 90028 [5, 20]: 0.391 to 1.56 µM
- MIC Ca [5, 21]: 4 µg/mL
- MIC Cryptococcus neoformans ATCC 208821 [6, 19]: 0.195 to 0.391 µM
- MIC50 Cryptococcus neoformans ATCC 208821 [6, 20]: 0.195 to 0.391 µM
- MIC Cn [6, 21]: 2 µg/mL
- RBC HC10 (human red blood cells; ranges obtained upon retesting, new batch): 0.4 to 3 µM
- MIC Candida auris CBS10913 ([8]; second batch, ≥80 or ≥50% inhibition): 0.781 to 1.56 µM
- MIC50 Candida auris CBS10913 ([8]; 50% inhibition, MIC score 2): 0.781 to 1.56 µM
- MIC ([9]; second batch, ≥80 or ≥50% inhibition, read-out: MIC* Candida auris CBS12373): 0.78 µM
- MIC50 Candida auris CBS12373 ([9]; 50% inhibition, MIC score 2): 0.391 to 0.781 µM
- MIC [10]: 6.25 µM
- MIC Candida tropicalis ATCC 750 [11]: 0.391 to 0.781 µM
- MIC Cryptococcus deuterogattii ATCC 32609 [12]: 0.781 to 1.56 µM
- MIC [13]: 0.391 µM
- MIC50 Candida glabrata ATCC 90030 [14]: 0.391 to 6.25 µM
- MIC50 Candida tropicalis ATCC 750 [15]: 0.391 to 0.781 µM
- MIC50 Cryptococcus deuterogattii CBS7750 [16]: 0.391 µM
- MIC50 Cryptococcus deuterogattii ATCC 32609 [17]: 0.78 to 1.56 µM
SMILES: Cc1c(C)c(C)[c-](C)c1C.Cc1c(C)c(C)[c-](C)c1C.[Cl-].[Cl-].[Cl-].[Cl-].[Rh+3].[Rh+3] [Rh1]
- HEK CC50 ([7]; initial CO-ADD screening, 20 h): >32 µg/mL
- CC50 ([7]; read-out: HEK293 CC50, ranges obtained upon retesting, new batch): > 200 µM
- cytotoxicity: none up to stated concentration ([7]; retest): > 200 µM
- RBC HC10 (human red blood cells; initial CO-ADD screening, 1 h, 10% hemolysis): >32 µg/mL
- IC50 [18]: 7.3 ± 1.5 µM
